From patent US6403586B1, “Pyridazine derivatives and drugs containing the same as the active ingredient” (Kowa Co., Ltd., priority 1998, dated 2002)
“And” between values parts separate entries of the source, which are not always exact repeats. Equal values may be shown once.

Test system: not given
Test: not given
Conditions: not given

Which melting point does the source give for CNC(=O)c1cc(-c2ccc(OC)cc2)nn(CC2CC2)c1=O [Example 61, 2-Cyclopropylmethyl-6-(4-methoxyphenyl)-4-methylcarbamoyl-2H-pyridazin-3-one] here?
Its melting point is 136.6 to 137.5 °C.

For CNC(=O)C1CC(c2ccc(OC)cc2)=NN(CC(C)C)C1=O (centres unmarked) [Example 128, 4,5-dihydro-2-isobutyl-6-(4-methoxyphenyl)-4-methylcarbamoyl-2H-pyridazin-3-one], which melting point is on record?
The melting point was 124.2 to 125 °C.

Which melting point does the source give for COc1ccc(-c2cc(NC=O)c(=O)n(CC=Cc3ccc(Cl)cc3)n2)cc1 [Example 112, 2-(4-chlorocinnamyl)-4-formylamino-6-(4-methoxyphenyl)-2H-pyridazin-3-one] here?
The melting point was 213 to 213.8 °C.

For CCNC(=O)c1cc(-c2ccc(OC)cc2)nn(CC2CC2)c1=O [Example 66, 2-Cyclopropylmethyl-4-ethylcarbamoyl-6-(4-methoxyphenyl)-2H-pyridazin-3-one], which melting point is on record?
Its melting point is 136.3 to 136.9 °C.

Which melting point does the source give for CCOC(=O)c1cc(-c2ccc(OC)cc2)nn(C(C)C)c1=O [Example 9, 4-Ethoxycarbonyl-2-isopropyl-6-(4-methoxyphenyl)-2H-pyridazin-3-one] here?
The melting point was 140.6 to 141.1 °C.

For COC(=O)c1cc(-c2ccc(OC)c(F)c2)nn(CC2CC2)c1=O [Example 18, 2-Cyclopropylmethyl-6-(3-fluoro-4-methoxyphenyl)-4-methoxycarbonyl-2H-pyridazin-3-one], which melting point is on record?
The melting point was 139.6 to 140.7 °C.

Which melting point does the source give for COC(=O)c1cc(-c2ccc(OC)c(F)c2)nn(CC=Cc2ccc(Cl)cc2)c1=O [Example 33, 2-(4-Chlorocinnamyl)-6-(3-fluoro-4-methoxyphenyl)-4-methoxycarbonyl-2H-pyridazin-3-one] here?
Its melting point is 131.3 to 132.3 °C.

With CNC(=S)c1cc(-c2ccc(OC)cc2)nn(CC(C)C)c1=O [Example 130, 2-isobutyl-6-(4-methoxyphenyl)-4-methylthiocarbamoyl-2H-pyridazin-3-one] as the molecule, how does the melting point read?
The melting point was 116 to 116.6 °C.

Which melting point does the source give for CCCn1nc(-c2ccc(OC)cc2)cc(C(=O)OC)c1=O [Example 4, 4-Methoxycarbonyl-6-(4-methoxyphenyl)-2-n-propyl-2H-pyridazin-3-one] here?
Its melting point is 106.5 to 107.1 °C and 104.8 to 105.8 °C.

Which melting point does the source give for NC(=O)c1cc(-c2ccc(F)c(Cl)c2)nn(CC=Cc2ccccc2)c1=O [Example 127, 4-carbamoyl-6-(3-chloro-4-fluorophenyl)-2-cinnamyl-2H-pyridazin-3-one] here?
The melting point was 211 to 212 °C.

For COC(=O)c1cc(-c2ccc(OC)cc2)nn(Cc2ccc(N)cc2)c1=O [Example 26, 2-(4-Aminobenzyl)-4-methoxycarbonyl-6-(4-methoxyphenyl)-2H-pyridazin-3-one], which melting point is on record?
The melting point was 160 to 161.9 °C.

For COc1ccc(-c2cc(NS(C)(=O)=O)c(=O)n(Cc3ccccc3)n2)cc1 [Example 122, 2-benzyl-4-methanesulfonylamino-6-(4-methoxyphenyl)-2H-pyridazin-3-one], which melting point is on record?
The melting point was 195 to 195.5 °C.

Which melting point does the source give for CNC(=O)c1cc(-c2ccc(OC)cc2)nn(Cc2ccc(NC(=O)c3cccnc3)cc2)c1=O [Example 81, 6-(4-Methoxyphenyl)-4-methylcarbamoyl-2-[4-(3-pyridylcarbonylamino)benzyl]-2H-pyridazin-3-one] here?
The melting point was 226.7 to 227.6 °C (dec.).

With COc1ccc(-c2cc(NC(=O)OCCCCCc3ccccc3)c(=O)n(CC=Cc3ccc(Cl)cc3)n2)cc1 [Example 118, 2-(4-chlorocinnamyl)-6-(4-methoxyphenyl)-4-[N-(3-phenylpropyl)ethoxycarbonylamino]-2H-pyridazin-3-one] as the molecule, how does the melting point read?
Its melting point is 113.5 to 114.2 °C.

Which melting point does the source give for COC(=O)c1cc(-c2ccc(OC)c(OC)c2)nn(CC(C)C)c1=O [Example 11, 6-(3,4-Dimethoxyphenyl)-2-isobutyl-4-methoxycarbonyl-2H-pyridazin-3-one] here?
The melting point was 104.2 to 105.5 °C.

Which melting point does the source give for COC(=O)c1cc(-c2ccc(OC)c(F)c2)nn(CC(C)C)c1=O [Example 12, 6-(3-Fluoro-4-methoxyphenyl)-2-isobutyl-4-methoxycarbonyl-2H-pyridaz in-3-one] here?
Its melting point is 153.3 to 154.9 °C.

Which melting point does the source give for COC(=O)c1cc(-c2ccc(OC)cc2)nn(Cc2ccc(NC(=O)c3cccnc3)cc2)c1=O [Example 27, 4-Methoxycarbonyl-6-(4-methoxyphenyl)-2-[4-(3-pyridylcarbonylamino)benzyl]-2H-pyridazin-3-one] here?
Its melting point is 235.7 to 236.9 °C (dec.).

With COc1ccc(-c2cc(C(=O)NCc3ccccn3)c(=O)n(CC3CC3)n2)cc1 [Example 69, 2-Cyclopropylmethyl-6-(4-methoxyphenyl)-4-(2-pyridylmethyl)carbamoyl-2H-pyridazin-3-one] as the molecule, how does the melting point read?
Its melting point is 98.6 to 99.3 °C.

For COc1ccc(-c2cc(C(=O)O)c(=O)n(CC=Cc3ccc(Cl)cc3)n2)cc1Cl [Example 105, 4-carboxy-2-(4-chlorocinnamyl)-6-(3-chloro-4-methoxyphenyl)-2H-pyridazin-3-one], which melting point is on record?
The melting point was 183 to 183.8 °C.

For COC(=O)c1cc(-c2ccc(OC)c(Cl)c2)nn(CC=Cc2ccc(Cl)cc2)c1=O [Example 34, 2-(4-Chlorocinnamyl)-6-(3-chloro-4-methoxyphenyl)-4-methoxycarbonyl-2H-pyridazin-3-one], which melting point is on record?
The melting point was 179.7 to 181.6 °C.

For COc1ccc(-c2cc(C(=O)NCc3ccccc3)c(=O)n(CC3CCCC3)n2)cc1 [Example 75, 4-Benzylcarbamoyl-2-cyclopentylmethyl-6-(4-methoxyphenyl)-2H-pyridazin-3-one], which melting point is on record?
Its melting point is 107.6 to 108.1 °C.

With CCOC(=O)Nc1cc(-c2ccc(OC)cc2)nn(CC=C(C)C)c1=O [Example 93, 4-ethoxycarbonylamino-6-(4-methoxy-phenyl)-2-(3-methyl-2-butenyl)-2H-pyridazin-3-one] as the molecule, how does the melting point read?
The melting point was 130.2 to 131.2 °C.

With COc1ccc(-c2cc(C(=O)NCc3ccccn3)c(=O)n(C)n2)cc1 [Example 78, 6-(4-Methoxyphenyl)-2-methyl-4-(2-pyridylmethyl)carbamoyl-2H-pyridazin-3-one] as the molecule, how does the melting point read?
The melting point was 122.4 to 122.9 °C.

Which melting point does the source give for CCOC(=O)Nc1cc(-c2ccc(OC)cc2)nn(CC=Cc2ccc(Cl)cc2)c1=O [Example 87, 2-(4-Chlorocinnamyl)-4-ethoxycarbonylamino-6-(4-methoxyphenyl)-2H-pyridazin-3-one] here?
Its melting point is 171.2 to 172.1 °C.

Which melting point does the source give for COC(=O)c1cc(-c2ccc(OC)cc2)nn(C)c1=O [Example 1, 4-Methoxycarbonyl-6-(4-methoxyphenyl)-2-methyl-2H-pyridazin-3-one] here?
The melting point was 109.2 to 109.5 °C.

Which melting point does the source give for COc1ccc(-c2cc(N)c(=O)n(CC=Cc3ccc(Cl)cc3)n2)cc1 [Example 111, 4-amino-2-(4-chlorocinnamyl)-6-(4-methoxyphenyl)-2H-pyridazin-3-one] here?
Its melting point is 142.7 to 143.2 °C.

For COc1ccc(-c2cc(NC(=O)OC(C)C)c(=O)n(CC=Cc3ccc(Cl)cc3)n2)cc1 [Example 88, 2-(4-chlorocinnamyl)-6-(4-methoxyphenyl)-4-isopropoxycarbonylamino-2H-pyridazin-3-one], which melting point is on record?
Its melting point is 123.9 to 127.4 °C.

Which melting point does the source give for COc1ccc(-c2cc(NC(=O)OCc3ccc(SC)cc3)c(=O)n(CC=Cc3ccc(Cl)cc3)n2)cc1 [Example 91, 2-(4-chlorocinnamyl)-6-(4-methoxyphenyl)-4-[4-(methylthio)benzyloxycarbonylamino]-2H-pyridazin-3-one] here?
The melting point was 187.6 to 188.7 °C.

With CNC(=O)c1cc(-c2ccc(OC)cc2)nn(CC(C)C)c1=O [Example 43, 2-Isobutyl-6-(4-methoxyphenyl)-4-methylcarbamoyl-2H-pyridazin-3-one] as the molecule, how does the melting point read?
Its melting point is 124.9 to 125.2 °C.

Which melting point does the source give for CCOC(=O)Nc1cc(-c2ccc(OC)cc2)nn(CC2CC2)c1=O [Example 95, 2-cyclopropylmethyl-4-ethoxycarbonylamino-6-(4-methoxyphenyl)-2H-pyridazin-3-one] here?
The melting point was 119.1 to 119.6 °C.

Which melting point does the source give for CNC(=O)c1cc(-c2ccc(SC)cc2)nn(CC2CC2)c1=O [Example 65, 2-Cyclopropylmethyl-4-methylcarbamoyl-6-[4-(methylthio)phenyl]-2H-pyridazin-3-one] here?
The melting point was 116.5 to 118 °C.

With CNC(=O)c1cc(-c2ccc(OC)cc2)nn(CC=C(C)C)c1=O [Example 57, 6-(4-Methoxyphenyl)-2-(3-methyl-2-butenyl)-4-methylcarbamoyl-2H-pyridazin-3-one] as the molecule, how does the melting point read?
Its melting point is 103.6 to 104 °C.

For CNC(=O)c1cc(-c2ccc(OC)cc2)nn(Cc2ccc(Cl)cc2Cl)c1=O [Example 82, 2-(2,4-Dichlorobenzyl)-6-(4-methoxy-phenyl)-4-methylcarbamoyl-2H-pyridazin-3-one], which melting point is on record?
Its melting point is 154.2 to 156.2 °C.

Test system: Interleukin-1β (IL-1β) Production in HL-60 cells
Test: Inhibitory activity against interleukin-1β production (Test 1)
Type: cell-based
Conditions: Homo sapiens, 72 h, lipopolysaccharide 10 μg/ml, culturing for 3 days, compared with control without test sample
Protocol: (Inhibitory activity against interleukin-1β production)
HL-60 cells were cultured for 4 days until confluence on RPMI 1640 medium with 10% fetal bovine serum (FBS) added thereto. The medium was centrifuged. The supernatant was discarded, and the cells were then suspended at 1×10^6 cells/me on RPMI 1640 medium with 3% FBS, and lipopolysaccharide was added to give a final concentration of 10 μg/ml. The culture was inoculated at 1 ml/well to a 24-well plate. A test compound was added at 1 μl/well, followed by culturing for 3 days. Three days later, the amount of interleukin-1β in each […] was determined by a comparison in yield with a control to which no test sample was added.

With CNC(=O)c1cc(-c2ccc(OC)cc2)nn(CC2CC2)c1=O [Example 61, 2-Cyclopropylmethyl-6-(4-methoxyphenyl)-4-methylcarbamoyl-2H-pyridazin-3-one] as the molecule, how does the IC50 read?
The IC50 was 0.038 µM.

With CNC(=O)c1cc(-c2ccc(OC)c(F)c2)nn(CC2CC2)c1=O [Example 63, 2-Cyclopropylmethyl-6-(3-fluoro-4-methoxyphenyl)-4-methylcarbamoyl-2H-pyridazin-3-one] as the molecule, how does the IC50 read?
The IC50 was 0.31 µM.

With CNC(=O)C1CC(c2ccc(OC)cc2)=NN(CC(C)C)C1=O (centres unmarked) [Example 128, 4,5-dihydro-2-isobutyl-6-(4-methoxyphenyl)-4-methylcarbamoyl-2H-pyridazin-3-one] as the molecule, how does the IC50 read?
Its IC50 is 0.4 µM.

For COc1ccc(-c2cc(NC=O)c(=O)n(CC=Cc3ccc(Cl)cc3)n2)cc1 [Example 112, 2-(4-chlorocinnamyl)-4-formylamino-6-(4-methoxyphenyl)-2H-pyridazin-3-one], which IC50 is on record?
The IC50 was 0.387 µM.

For COc1ccc(-c2cc(=O)[nH]nc2-c2ccc(OC)cc2)cc1 [Comp. Comp'd 4, reference compound], which IC50 is on record?
The IC50 was 31.6 µM.

For CCNC(=O)c1cc(-c2ccc(OC)cc2)nn(CC2CC2)c1=O [Example 66, 2-Cyclopropylmethyl-4-ethylcarbamoyl-6-(4-methoxyphenyl)-2H-pyridazin-3-one], which IC50 is on record?
Its IC50 is 0.11 µM.

For COc1ccc(-c2cc(=O)n(CCO)nc2-c2ccc(OC)cc2)cc1 [Comp. Comp'd 2, reference compound], which IC50 is on record?
The IC50 was 46 µM.

For COc1ccc(-c2cc(=O)n(CCCl)nc2-c2ccc(OC)cc2)cc1 [Comp. Comp'd 1, reference compound], which IC50 is on record?
Its IC50 is 29 µM.

For CCOC(=O)Nc1cc(-c2ccc(OC)cc2)nn(CC=Cc2ccc(Cl)cc2)c1=O [Example 87, 2-(4-Chlorocinnamyl)-4-ethoxycarbonylamino-6-(4-methoxyphenyl)-2H-pyridazin-3-one], which IC50 is on record?
Its IC50 is 0.05 µM.

Which IC50 does the source give for COc1ccc(-c2cc(N)c(=O)n(CC=Cc3ccc(Cl)cc3)n2)cc1 [Example 111, 4-amino-2-(4-chlorocinnamyl)-6-(4-methoxyphenyl)-2H-pyridazin-3-one] here?
The IC50 was 0.53 µM.

For CNC(=O)c1cc(-c2ccc(OC)cc2)nn(CC(C)C)c1=O [Example 43, 2-Isobutyl-6-(4-methoxyphenyl)-4-methylcarbamoyl-2H-pyridazin-3-one], which IC50 is on record?
The IC50 was 0.357 µM.
